Target: T1, collagenase obtained from a culture of human synovial fibroblasts (Homo sapiens, UniProt P03956)
T1 construct: endogenous in cells; host or cells: human synovial fibroblast culture (conditioned medium)
T1 sequence (P03956 100-469): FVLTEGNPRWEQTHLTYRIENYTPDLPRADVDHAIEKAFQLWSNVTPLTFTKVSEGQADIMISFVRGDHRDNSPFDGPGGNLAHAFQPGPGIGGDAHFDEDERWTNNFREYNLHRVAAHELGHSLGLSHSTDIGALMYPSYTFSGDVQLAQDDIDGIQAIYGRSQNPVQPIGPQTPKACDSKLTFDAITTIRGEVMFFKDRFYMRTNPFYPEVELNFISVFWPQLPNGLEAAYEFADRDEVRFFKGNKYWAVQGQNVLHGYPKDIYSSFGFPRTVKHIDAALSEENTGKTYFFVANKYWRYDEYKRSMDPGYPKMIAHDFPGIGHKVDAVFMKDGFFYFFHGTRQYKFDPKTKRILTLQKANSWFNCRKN
Test: in vitro collagenase inhibiting activity, microtitre plate assay with 14C-acetylated collagen type I from rat tail tendons as substrate
Assay type: biochemical
Conditions: trypsin-activated pro-collagenase; 14C-acetylated collagen type I substrate; concentration reducing substrate cleavage and solubilization to 50%

Row | SMILES | IC50 [nM]
1 | CN1C(=O)N(CC(C(=O)NO)[C@@H](CC2CCCC2)C(=O)N2CCC(O)CC2)C(=O)C1(C)C (single isomer, unassigned) [Example 7, 1-[3-cyclopentyl-2[(R)-[1(R or S)-(hydroxycarbamoyl)-2-(3,4,4-trimethyl-2,5-dioxo-1imidazolidinyl)ethyl]propionyl]-4-piperidinol] | 6.5
2 | CN1C(=O)N(CC(C(=O)NO)[C@@H](CC2CCC2)C(=O)N2CCC(O)CC2)C(=O)C1(C)C (single isomer, unassigned) [Example 5, 1-[3-cyclobutyl-2(R)-[1(R or S)-(hydroxycarbamoyl)-2-(3,4,4-trimethyl-2,5-dioxo-1-imidazolidinyl)ethyl]propionyl]-4-piperidinol] | 2.5
3 | CNC(=O)[C@H]1N(C(=O)[C@H](CC2CCCC2)C(CN2C(=O)N(C)C(C)(C)C2=O)C(=O)NO)CSC1(C)C (single isomer, unassigned) [Example 17, 3-[3-cyclopentyl-2(R)-[1(R or S)-(hydroxycarbamoyl)-2-(3,4,4-trimethyl-2,5-dioxo-1imidazolidinyl)ethyl]propionyl]-N,5,5-trimethyl-4(R)-thiazolidinecarboxamide] | 2.35
4 | CN1C(=O)N(CC(C(=O)NO)[C@@H](CC2CC2)C(=O)N2CCC(O)CC2)C(=O)C1(C)C (single isomer, unassigned) [Example 2, 1-[3-cyclopropyl-2-(R)-[1(R or S)-(hydroxycarbamoyl)-2-(3,4,4-trimethyl-2,5-dioxo-1-imidazolidinyl)ethyl]propionyl]-4-piperidinol] | 18

Further lines, results first:

Row | IC50 [nM] | SMILES
5 | 34 | CN1C(=O)N(CC(C(=O)NO)[C@@H](CC2CCC2)C(=O)N2CCCCCCC2)C(=O)C1(C)C (single isomer, unassigned) [Example 23, 1-[3-cyclobutyl-2(R)-[1(R or S)-(hydroxycarbamoyl)-2-(3,4,4-trimethyl-2,5-dioxo-1-imidazolidinyl)ethyl]propionyl]octahydroazocine]
6 | 4.1 | CN1C(=O)N(CC(C(=O)NO)[C@@H](CC2CCCC2)C(=O)N2CCOCC2)C(=O)C1(C)C (single isomer, unassigned) [Example 16, 4-[3-cyclopentyl-2(R)-[1(R or S)-(hydroxycarbamoyl)-2-(3,4,4-trimethyl-2,5-dioxo-1-imidazolidinyl)ethyl]propionyl]morpholine]
7 | 7 | CN1C(=O)N(CC(C(=O)NO)[C@@H](CC2CCC2)C(=O)N2CCCCC2)C(=O)C1(C)C (single isomer, unassigned) [Example 4, 1-[3-cyclobutyl-2(R)-[1(R or S)-(hydroxycarbamoyl)-2-(3,4,4-trimethyl-2,5-dioxo-1-imidazolidinyl)ethyl]propionyl]piperidine]

From patent US5614625A, “Hydroxamic acid derivatives with tricyclic substitution” (Hoffmann-La Roche Inc., priority 1994, dated 1997)
